Measurements published in PubChem BioAssay (NCI).
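48-hour exposure; five concentrations; linearly interpolated endpoints. Definition used: TGI = concentration required for complete inhibition of growth.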

Key:
Assay in all cases: DTP human tumour cell line panel, 48 h
[1] = system: A549 NSCLC
[2] = system: ACHN renal
[3] = system: CAKI-1 renal
[4] = system: CCRF-CEM leukemia
[5] = system: COLO 205 colon
[6] = system: DLD-1 colon
[7] = system: DMS 114 small cell lung
[8] = system: DMS 273 small cell lung
[9] = system: EKVX NSCLC
[10] = system: HCC-2998 colon
[11] = system: HCT-15 colon
[12] = system: HL-60(TB) leukemia
[13] = system: HT29 colon
[14] = system: IGROV1 ovarian
[15] = system: K-562 leukemia
[16] = system: KM12 colon
[17] = system: KM20L2 colon
[18] = system: LOX IMVI melanoma
[19] = system: LXFL 529 NSCLC
[20] = system: M14 melanoma
[21] = system: MALME-3M melanoma
[22] = system: MOLT-4 leukemia
[23] = system: NCI-H23 lung
[24] = system: NCI-H522 lung
[25] = system: OVCAR-4 ovarian
[26] = system: OVCAR-5 ovarian
[27] = system: OVCAR-8 ovarian
[28] = system: RPMI-8226 leukemia
[29] = system: RXF 393 renal
[30] = system: RXF-631 renal
[31] = system: SF-268 CNS
[32] = system: SF-295 CNS
[33] = system: SF-539 CNS
[34] = system: SK-MEL-2 melanoma
[35] = system: SK-MEL-28 melanoma
[36] = system: SK-MEL-5 melanoma
[37] = system: SK-OV-3 ovarian
[38] = system: SN12C renal
[39] = system: SNB-19 CNS
[40] = system: SNB-75 CNS
[41] = system: SNB-78 CNS
[42] = system: SW-620 colon
[43] = system: TK-10 renal
[44] = system: U251 CNS
[45] = system: UACC-257 melanoma
[46] = system: UACC-62 melanoma
[47] = system: UO-31 renal
[48] = system: HCT-116 colon
[49] = system: HOP-18 NSCLC
[50] = system: HOP-62 NSCLC
[51] = system: HOP-92 NSCLC
[52] = system: M19-MEL melanoma
[53] = system: NCI-H460 lung
[54] = system: OVCAR-3 ovarian
[55] = system: SR leukemia

COC(=O)CN(C)P(=O)(N1CC1)N1CC1
TGI [1]: > 100 µM
TGI [2]: > 100 µM
TGI [3]: > 100 µM
TGI [4]: > 100 µM
TGI [5]: > 100 µM
TGI [6]: > 100 µM
TGI [7]: > 100 µM
TGI [8]: > 100 µM
TGI [9]: > 100 µM
TGI [10]: > 100 µM
TGI [11]: > 100 µM
TGI [12]: > 100 µM
TGI [13]: > 100 µM
TGI [14]: > 100 µM
TGI [15]: > 100 µM
TGI [16]: > 100 µM
TGI [17]: > 100 µM
TGI [18]: > 100 µM
TGI [19]: > 100 µM
TGI [20]: > 100 µM
TGI [21]: > 100 µM
TGI [22]: > 100 µM
TGI [23]: > 100 µM
TGI [24]: > 100 µM
TGI [25]: > 100 µM
TGI [26]: > 100 µM
TGI [27]: > 100 µM
TGI [28]: > 100 µM
TGI [29]: > 100 µM
TGI [30]: > 100 µM
TGI [31]: > 100 µM
TGI [32]: > 100 µM
TGI [33]: > 100 µM
TGI [34]: > 100 µM
TGI [35]: > 100 µM
TGI [36]: > 100 µM
TGI [37]: > 100 µM
TGI [38]: > 100 µM
TGI [39]: > 100 µM
TGI [40]: > 100 µM
TGI [41]: > 100 µM
TGI [42]: > 100 µM
TGI [43]: > 100 µM
TGI [44]: > 100 µM
TGI [45]: > 100 µM
TGI [46]: > 100 µM
TGI [47]: > 100 µM

CC(=O)OC1(C#N)CC2OC1C1C2N=NN1C(=O)OC(C)(C)C (stereo unspecified)
TGI [1]: > 100 µM
TGI [2]: > 100 µM
TGI [3]: > 100 µM
TGI [4]: > 100 µM
TGI [5]: > 100 µM
TGI [6]: > 100 µM
TGI [7]: 65.6 µM
TGI [8]: 73.8 µM
TGI [9]: > 100 µM
TGI [10]: > 100 µM
TGI [48]: 28.6 µM
TGI [11]: 55.9 µM
TGI [49]: > 100 µM
TGI [50]: > 100 µM
TGI [51]: 75.3 µM
TGI [13]: > 100 µM
TGI [14]: > 100 µM
TGI [15]: > 100 µM
TGI [17]: > 100 µM
TGI [18]: 69.4 µM
TGI [19]: > 100 µM
TGI [20]: 46.6 µM
TGI [52]: > 100 µM
TGI [21]: 48.3 µM
TGI [22]: > 100 µM
TGI [23]: 77.7 µM
TGI [53]: > 100 µM
TGI [24]: > 100 µM
TGI [54]: > 100 µM
TGI [25]: > 100 µM
TGI [26]: > 100 µM
TGI [27]: > 100 µM
TGI [28]: > 100 µM
TGI [29]: > 100 µM
TGI [30]: > 100 µM
TGI [31]: > 100 µM
TGI [33]: 52.7 µM
TGI [34]: 68.9 µM
TGI [35]: 81.9 µM
TGI [36]: > 100 µM
TGI [38]: > 100 µM
TGI [40]: > 100 µM
TGI [41]: 73.2 µM
TGI [55]: > 100 µM
TGI [42]: > 100 µM
TGI [43]: > 100 µM
TGI [45]: > 100 µM
TGI [46]: 45.9 µM
TGI [47]: > 100 µM
